Data as given in US6451853B1, “Small molecules that elicit a polarized Th1 response and for modulation of cellular immunity” (Dovetail Technologies, Inc, priority 1998, dated 2002).
Several values for one entry are separate records, joined by “and”; a condition that tells them apart may be missing. Equal entries are not always repeated. Where two headings read alike, the source gives them in different places.

Columns and labels:
[1] = tested on: Monocyte Chemokine Message levels; experiment: RNase protection assay of monocyte chemokine message levels; type: cell-based, human; conditions: Media + beta-alethine 20 mM; RPA phosphorimaging normalized on L32
Method: Monocyte expression of chemokines was also assessed in beta-alethine-treated cells (Table 3). While IP-10 expression was decreased by beta-alethine, the levels of the chemoattractants MIP-1a and IL-8 were increased slightly. Bacterial infections are contained by an inflammatory response. MIP-1a recruits macrophages, T cells and eosinophils to the infection site, and IL-8 recruits neutrophils. Therefore both of these chemokines are important in fighting pathogen-induced infections.

[2] = tested on: surface TNF alpha on human monocytes; experiment: Surface TNF alpha expression on monocytes by FACS (CD14+ cells); type: cell-based; set-up: TNF alpha from Monocytes, With BT / change with BT versus without BT: unit not given here; conditions: for TNF alpha from Monocytes, With BT / change with BT versus without BT: 20 mM BT; for surface TNF alpha expression: all drugs 20 mM
Excerpt: The effect of NAC and BT, alone or in combination, on surface TNF alpha expression by stimulated or unstimulated monocytes (prepared from PBM) was examined. […] Table 6. While only a small proportion of T cells from each donor were responsive to the combination NAC/BT, the effect on surface TNF alpha expression in monocytes was significant.

[3] = tested on: panel of human T-cell lines; experiment: Surface TNF alpha expression on a panel of human T-cell lines; type: cell-based; conditions: data not shown
CD-1 mice = conditions: for Mortality: CD-1 mice
in vivo = conditions: both, CD-1, mouse, iv
[4] = tested on: soluble TNF alpha release from human lymphocytes; experiment: Soluble TNF alpha in supernatants by ELISA; conditions: Media (unstimulated); drugs 20 mM; ELISA standard curve in pg/mL, unit not given
[5] = tested on: TNF-R I on T cells (PBMCs); experiment: TNF receptor I expression on T cells by FACS
[6] = tested on: surface TNF alpha on human T cells; experiment: Surface TNF alpha expression on T cells by FACS (gating on CD3+ cells); conditions: for Change in with BT/without BT: 20 mM BT; for % Positive ± SD (T cells expressing high levels of surface TNF alpha) / MFI ± SD: PMA/ionomycin; for surface TNF alpha, overall MFI: With BT 20 mM; for surface TNF alpha level: unstimulated T cells, BT alone 20 mM, single donor
HL60 targets = experiment: T cell-dependent cytotoxicity toward HL60 targets (MTT reduction assay)
[7] = tested on: Cytokine mRNA from T cells (PBMC); experiment: RNase protection assay of cytokine mRNA in PBMC (T cells), with or without PMA/ionomycin; conditions: for PMA/ionomycin-induced upregulation of TNF alpha message: PMA/ionomycin stimulation
[8] = Media (no stimulation), individual donors/dates
[9] = Stimulation, individual donors/dates
[10] = stimulation 1 micromolar Ionomycin and 10 ng/ml PMA, 48 hrs
[11] = stimulation 1 micromolar Ionomycin and 10 ng/ml PMA, individual donors/dates
[12] = BT 27 nM, no stimulation, 6 hours
[13] = BT 2.7 uM, no stimulation, 6 hours
[14] = BT 20 mM, no stimulation, 6 hours

## NCCC(=O)NCCSSCCNC(=O)CCN [BT, beta-alethine]
[1]
  IL-8 message level: 11,615,894
  IP-10 message level: 55,214
  MIP-1 alpha message level: 909,291
  MIP-1 beta message level: 554,709
[2]; Media (no stimulation), 48 hrs
  TNF alpha from Monocytes, With BT: 14.22
  change with BT versus without BT: 0.07037
[2]; [8]
  TNF alpha from Monocytes, With BT: 124.26 and 10.53 and 24.06
  change with BT versus without BT: 78.87 and −44.17 and 18.58
[2]; Stimulation, 48 hrs
  TNF alpha from Monocytes, With BT: 34.59
  change with BT versus without BT: −6.107
[2]; [9]
  TNF alpha from Monocytes, With BT: 71.42 and 202.15 and 41.97 and 143.51 and 87.59
  change with BT versus without BT: 11.54 and 249.1 and −52.59 and 126.7 and 127.7
[2]; stimulated monocytes
  surface TNF alpha expression: induced significant surface TNF alpha expression
[2]; unstimulated monocytes
  surface TNF alpha expression: not upregulated
[3]
  surface TNF alpha expression: induced upregulation
CD-1 mice; mouse, in vivo
  gross pathology at necropsy: No gross pathology
CD-1 mice; single bolus intravenous dose 67 mg/kg
  Mortality: 0/2
CD-1 mice; single bolus intravenous dose 333 mg/kg
  Mortality: 1/3
CD-1 mice; single bolus intravenous dose 667 mg/kg
  Mortality: 2/2
In vivo
  LD50 at 2 weeks: > 100 mg/kg
[4]
  Soluble TNF: 29
[5]; PMA/ionomycin + 20 mM BT, 20 hours
  TNF Receptor I Expression (mean fluorescent channel): 329
[5]; PMA/ionomycin + 20 mM BT, 45 hours
  TNF Receptor I Expression (mean fluorescent channel): 548
[5]; PMA/ionomycin + 20 mM BT, 69 hours
  TNF Receptor I Expression (mean fluorescent channel): 489
[5]; unstimulated, 20 mM BT, 20 hours
  TNF Receptor I Expression (mean fluorescent channel): 136
[5]; unstimulated, 20 mM BT, 45 hours
  TNF Receptor I Expression (mean fluorescent channel): 109
[5]; unstimulated, 20 mM BT, 69 hours
  TNF Receptor I Expression (mean fluorescent channel): 96
[6]; [10]
  Change in with BT/without BT: 84.527%
  surface TNF alpha, overall MFI: 146.81
[6]; [11]
  Change in with BT/without BT: 45.223% and 66.236% and 49.403% and 71.042% and 4.276% and 68.647% and 152.007% and 27.185% and 104.690% and 325.647%
  surface TNF alpha, overall MFI: 164.48 and 83.65 and 123.87 and 25.93 and 48.53 and 105.59 and 435.04 and 25.17 and 508.43 and 292.59
[6]; Dose 2.7 mM, 16 hours
  % Positive ± SD (T cells expressing high levels of surface TNF alpha): 10.86 ± .92%
  MFI ± SD: 94.52 ± 1.83
[6]; Dose 20 mM, 16 hours
  % Positive ± SD (T cells expressing high levels of surface TNF alpha): 24.25 ± 6.25%
  MFI ± SD: 127.37 ± 12.5
[6]; Dose .0085 mM, 16 hours
  % Positive ± SD (T cells expressing high levels of surface TNF alpha): 4.96 ± .41%
  MFI ± SD: 59.84 ± 4.08
[6]; Dose .027 mM, 16 hours
  % Positive ± SD (T cells expressing high levels of surface TNF alpha): 5.18 ± 1.73%
  MFI ± SD: 63.49 ± .28
[6]; Dose .085 mM, 16 hours
  % Positive ± SD (T cells expressing high levels of surface TNF alpha): 8.4 ± .5%
  MFI ± SD: 74.18 ± 7.98
[6]; Dose .27 mM, 16 hours
  % Positive ± SD (T cells expressing high levels of surface TNF alpha): 7.33 ± .38%
  MFI ± SD: 71.17 ± .77
[6]; Dose .85 mM, 16 hours
  % Positive ± SD (T cells expressing high levels of surface TNF alpha): 9.38 ± 1.57%
  MFI ± SD: 81.93 ± 6.33
[6]; PMA/ionomycin-stimulated cells
  time for which increased surface TNF alpha expression was sustained: over 50 hours
[6]; Pma/iono, 6 hours, 2.7 mM
  surface TNF alpha expression, Time Course: 149
[6]; Pma/iono, 6 hours, each drug 20 mM
  surface TNF alpha expression, Time Course: 112
[6]; Pma/iono, 16 hours, 2.7 mM
  surface TNF alpha expression, Time Course: 179
[6]; Pma/iono, 16 hours, each drug 20 mM
  surface TNF alpha expression, Time Course: 220
[6]; Pma/iono, 24 hours, 2.7 mM
  surface TNF alpha expression, Time Course: 208
[6]; Pma/iono, 24 hours, each drug 20 mM
  surface TNF alpha expression, Time Course: 226
[6]; Pma/iono, 42 hours, 2.7 mM
  surface TNF alpha expression, Time Course: 120
[6]; Pma/iono, 42 hours, each drug 20 mM
  surface TNF alpha expression, Time Course: 247
[6]; Pma/iono, 68 hours, 2.7 mM
  surface TNF alpha expression, Time Course: 64
[6]; Pma/iono, 68 hours, each drug 20 mM
  surface TNF alpha expression, Time Course: 174
[6]; stimulation with 1 ng PMA, individual donors
  surface TNF alpha, overall MFI: 133.13 and 25.41
[6]; 15 hours post-exposure (control 25)
  surface TNF alpha level: 75
[6]; forty hours (control 25)
  surface TNF alpha level: 100
[6]; unstimulated, 6 hours, 2.7 mM
  surface TNF alpha expression, Time Course: 22
[6]; unstimulated, 6 hours, each drug 20 mM
  surface TNF alpha expression, Time Course: 32
[6]; unstimulated, 16 hours, 2.7 mM
  surface TNF alpha expression, Time Course: 42
[6]; unstimulated, 16 hours, each drug 20 mM
  surface TNF alpha expression, Time Course: 76
[6]; unstimulated, 24 hours, 2.7 mM
  surface TNF alpha expression, Time Course: 47
[6]; unstimulated, 24 hours, each drug 20 mM
  surface TNF alpha expression, Time Course: 67
[6]; unstimulated, 42 hours, 2.7 mM
  surface TNF alpha expression, Time Course: 79
[6]; unstimulated, 42 hours, each drug 20 mM
  surface TNF alpha expression, Time Course: 101
[6]; unstimulated, 68 hours, 2.7 mM
  surface TNF alpha expression, Time Course: 30
[6]; unstimulated, 68 hours, each drug 20 mM
  surface TNF alpha expression, Time Course: 41
HL60 targets; 20 mM BT, PMA/ionomycin stimulated, data not shown
  T cell dependent cytotoxic activity toward HL60 in the presence of neutralizing anti-TNF alpha antibodies: inhibited
HL60 targets; PMA/ionomycin-stimulated T cells, 0.85 mM, 10:1 effector:target, 24 hours
  T cell-Mediated Cytotoxicity, optical density at 540 nm ± SD: .191 ± .003
[7]; [12]
  % Change GAPDH mRNA: −10.95%
  % Change IFNg mRNA: 21.11%
  % Change LTb mRNA: 27.48%
  % Change TGFb1 mRNA: 26.69%
  % Change TNFa mRNA: 10.04%
  % Change TNFb mRNA: 42.88%
[7]; [13]
  % Change GAPDH mRNA: −4.78%
  % Change IFNg mRNA: 20.17%
  % Change LTb mRNA: 25.70%
  % Change TGFb1 mRNA: 42.15%
  % Change TNFa mRNA: 24.94%
  % Change TNFb mRNA: 220.87%
[7]; [14]
  % Change IFNg mRNA: 109.71% and 94.74% and 139.51%
  % Change IL-1Ra mRNA: 30.84%
  % Change IL-1a mRNA: 9.07%
  % Change IL-1b mRNA: 60.09%
  % Change IL-2 mRNA: 95.02%
  % Change IL-4 mRNA: 135.82%
  % Change IL-5 mRNA: 161.15%
  % Change IL-8 mRNA: 10.65%
  % Change IL-9 mRNA: 22.86%
  % Change IL-13 mRNA: 83.76%
  % Change IL-15 mRNA: 4.88%
  % Change LTN* mRNA: 58.25%
  % Change LTb mRNA: 117.13%
  % Change MIP-1 alpha mRNA: 25.98%
  % Change MIP-1 beta mRNA: −4.79%
  % Change RANTES mRNA: −2.09%
  % Change TGFb1 mRNA: 82.08%
  % Change TNFa mRNA: 168.85%
  % Change TNFb mRNA: 77.91%
[7]; PMA/ionomycin + 20 mM BT (PMA/ionomycin alone 3.61)
  ratio of TNF alpha: TGF beta message (densitometry): 7.12
[7]; 2.7 mM BT, 6 hours
  PMA/ionomycin-induced upregulation of TNF alpha message: maintained
[7]; 20 mM BT, 6 hours
  PMA/ionomycin-induced upregulation of TNF alpha message: further enhanced
[7]; media + 20 mM BT (media alone 0.092)
  ratio of TNF alpha: TGF beta message (densitometry): 1.36
